# Measurements taken from patent US6632643B2, “Use of α-1,4-glucan lyase for preparation of 1,5-D-hydrofructose” (Danisco A/S, priority 1993, dated 2003).
# Marks after values point to notes of the source that are not given here.
# Legend:
# [1] = tested on: lyase from M. costata; test: Relative degrading rates of the lyase from M. costata towards various substrates; type: biochemical, Morchella costata; details: for degradation (AF detectable on TLC plates): incubated for 48 h; for activity (maltotetraose as 100%): purified fungal lyase, section B.1.4.3
# [2] = tested on: lyase from M. vulgaris; test: Relative degrading rates of the lyase from M. vulgaris towards various substrates; type: biochemical, Morchella vulgaris; details: for degradation (AF detectable on TLC plates): incubated for 48 h; for Activity (%) (maltotetraose = 100%): all substrates 10 mg ml^−1
# Protocol: The activity observed for maltotetraose is treated as 100%. The final concentration of all substrates was 10 mg ml^−1.
# [3] = tested on: lyase purified from the fungal infected algae; test: Effect of alcohols on activity and stability of the lyase (AF yield); type: biochemical, fungal infected Gracilariopsis lemaneiformis
# Protocol: 1-propanol, 2-propanol and 1-butanol were tested at the following concentrations (0%, 1%, 5% and 10%).
# Ethanol was tested at the following concentrations (0, 1, 3, 5, 7, 9, 11, 13, 15%).
# [4] = tested on: α-1,4-glucan lyase from the parasite-free red seaweed Gracilariopsis lemaneiformis; test: Degradation rates of the Californian algal lyase on various substrates; type: biochemical; details: for AF released: substrate 10 mg/ml, pH 3.8, 40 min at 45° C.
# Protocol: Reaction conditions: The reaction mixture contained 10 mM of HOAc-NaOAc (pH 3.8). The substrate concentration was 10 mg/ml. The final volume was 100 ul after the addition of lyase and water. The reaction time was 40 min at 45° C.
# [5] = tested on: α-1,4-glucan lyase; test: Activity of the lyase towards maltosaccharides (summary); type: biochemical
# [6] = tested on: lyase from the fungal infected Gracilariopsis lemaneiformis; test: Reaction rates with glycogen and amylopectin, lyase from fungal infected Gracilariopsis lemaneiformis; type: biochemical
compound,measurement,setting,value
O=[N+]([O-])c1ccc(OC2OC(CO)C(OC3OC(CO)C(OC4OC(CO)C(OC5OC(CO)C(OC6OC(CO)C(OC7OC(CO)C(OC8OC(CO)C(O)C(O)C8O)C(O)C7O)C(O)C6O)C(O)C5O)C(O)C4O)C(O)C3O)C(O)C2O)cc1 (centres unmarked),degradation by the fungal lyase,[1],failed to degrade
same,degradation (AF detectable on TLC plates),[1],no AF detectable
same,degradation (AF detectable on TLC plates),[2],no AF detectable
1-butanol,increase of AF yield,"[3]; 5%, after 3-day incubation",52%
same,optimal concentration for AF yield,"[3]; tested at 0%, 1%, 5% and 10%",5%
1-propanol,AF yield,"[3]; 1% (v/v), 1 day",80 µmol
same,AF yield,"[3]; 1% (v/v), 3 days",280 µmol
same,AF yield,"[3]; 1% (v/v), 6 days",530 µmol
same,AF yield,"[3]; 1% (v/v), 10 days",803 µmol
same,AF yield,"[3]; 5% (v/v), 1 day",115 µmol
same,AF yield,"[3]; 5% (v/v), 3 days",367 µmol
same,AF yield,"[3]; 5% (v/v), 6 days",605 µmol
same,AF yield,"[3]; 5% (v/v), 10 days",853 µmol
same,increase of AF yield,"[3]; 5%, after 6 days of incubation",34%
same,AF yield,"[3]; 10% (v/v), 1 day",107 µmol
same,AF yield,"[3]; 10% (v/v), 3 days",307 µmol
same,AF yield,"[3]; 10% (v/v), 6 days",456 µmol
same,AF yield,"[3]; 10% (v/v), 10 days",583 µmol
same,optimal concentration for AF yield,"[3]; tested at 0%, 1%, 5% and 10%",5%
CC(C)O [2-propanol],increase of AF yield,"[3]; 1%, after 10 days incubation",20%
same,optimal concentration for AF yield,"[3]; tested at 0%, 1%, 5% and 10%",1%
CCO [Ethanol],increase of AF yield,"[3]; 3%, 10 days incubation",16%
same,increase of AF yield,"[3]; 5%, 7 days incubation",12%
same,optimal concentration for AF yield,"[3]; 7 days incubation, tested 0-15%",5%
same,optimal concentration for AF yield,"[3]; 10 days incubation, tested 0-15%",3%
"OC[C@H]1O[C@H](O[C@H]2[C@H](O)[C@@H](O)[C@@H](O[C@H]3[C@H](O)[C@@H](O)[C@@H](O[C@H]4[C@H](O)[C@@H](O)[C@@H](O[C@H]5[C@H](O)[C@@H](O)[C@@H](O[C@H]6[C@H](O)[C@@H](O)[C@@H](O[C@H]7[C@H](O)[C@@H](O)C(O)O[C@@H]7CO)O[C@@H]6CO)O[C@@H]5CO)O[C@@H]4CO)O[C@@H]3CO)O[C@@H]2CO)[C@H](O)[C@@H](O)[C@@H]1O (some centres unmarked) [Maltoheptaose, maltoheptaose]",activity (maltotetraose as 100%),[1],76%
same,relative degrading rate (maltotetraose = 100%),[1]; substrate 2 mg/ml,82.2%
same,relative degrading rate (maltotetraose = 100%),[1]; substrate 4 mg/ml,81.5%
same,relative degrading rate (maltotetraose = 100%),[1]; substrate 10 mg/ml,75.7%
same,Activity (%) (maltotetraose = 100%),[2],73.9%
same,AF released,[4],865 nmol
same,lyase activity towards maltosaccharide,[5],lower activity
"OC[C@H]1O[C@H](O[C@H]2[C@H](O)[C@@H](O)[C@@H](O[C@H]3[C@H](O)[C@@H](O)[C@@H](O[C@H]4[C@H](O)[C@@H](O)[C@@H](O[C@H]5[C@H](O)[C@@H](O)[C@@H](O[C@H]6[C@H](O)[C@@H](O)C(O)O[C@@H]6CO)O[C@@H]5CO)O[C@@H]4CO)O[C@@H]3CO)O[C@@H]2CO)[C@H](O)[C@@H](O)[C@@H]1O (some centres unmarked) [Maltohexaose, maltohexaose]",activity (maltotetraose as 100%),[1],97%
same,relative degrading rate (maltotetraose = 100%),[1]; substrate 2 mg/ml,86.6%
same,relative degrading rate (maltotetraose = 100%),[1]; substrate 4 mg/ml,98.2%
same,relative degrading rate (maltotetraose = 100%),[1]; substrate 10 mg/ml,95.9%
same,Activity (%) (maltotetraose = 100%),[2],92.4%
same,AF released,[4],826 nmol
OC[C@H]1O[C@H](O[C@H]2O[C@H](CO)[C@@H](O)[C@H](O)[C@H]2O)[C@H](O)[C@@H](O)[C@@H]1O [Trehalose],degradation (AF detectable on TLC plates),[1],no AF detectable
same,degradation (AF detectable on TLC plates),[2],no AF detectable
same,degradation by the lyase,[4],not able to degrade
OC[C@H]1O[C@@H]2O[C@H]3[C@H](O)[C@@H](O)[C@@H](O[C@H]4[C@H](O)[C@@H](O)[C@@H](O[C@H]5[C@H](O)[C@@H](O)[C@@H](O[C@H]6[C@H](O)[C@@H](O)[C@@H](O[C@H]7[C@H](O)[C@@H](O)[C@@H](O[C@H]1[C@H](O)[C@H]2O)O[C@@H]7CO)O[C@@H]6CO)O[C@@H]5CO)O[C@@H]4CO)O[C@@H]3CO [alpha-cyclodextrin],degradation (AF detectable on TLC plates),[1],no AF detectable
same,degradation (AF detectable on TLC plates),[2],no AF detectable
same,degradation by the lyase,[4],not able to degrade
OC[C@H]1O[C@@H]2O[C@H]3[C@H](O)[C@@H](O)[C@@H](O[C@H]4[C@H](O)[C@@H](O)[C@@H](O[C@H]5[C@H](O)[C@@H](O)[C@@H](O[C@H]6[C@H](O)[C@@H](O)[C@@H](O[C@H]7[C@H](O)[C@@H](O)[C@@H](O[C@H]8[C@H](O)[C@@H](O)[C@@H](O[C@H]1[C@H](O)[C@H]2O)O[C@@H]8CO)O[C@@H]7CO)O[C@@H]6CO)O[C@@H]5CO)O[C@@H]4CO)O[C@@H]3CO [beta-cyclodextrin],degradation (AF detectable on TLC plates),[1],no AF detectable
same,degradation (AF detectable on TLC plates),[2],no AF detectable
same,degradation by the lyase,[4],not able to degrade
OC[C@H]1O[C@@H]2O[C@H]3[C@H](O)[C@@H](O)[C@@H](O[C@H]4[C@H](O)[C@@H](O)[C@@H](O[C@H]5[C@H](O)[C@@H](O)[C@@H](O[C@H]6[C@H](O)[C@@H](O)[C@@H](O[C@H]7[C@H](O)[C@@H](O)[C@@H](O[C@H]8[C@H](O)[C@@H](O)[C@@H](O[C@H]9[C@H](O)[C@@H](O)[C@@H](O[C@H]1[C@H](O)[C@H]2O)O[C@@H]9CO)O[C@@H]8CO)O[C@@H]7CO)O[C@@H]6CO)O[C@@H]5CO)O[C@@H]4CO)O[C@@H]3CO [gama-cyclodextrin],degradation (AF detectable on TLC plates),[1],no AF detectable
same,degradation (AF detectable on TLC plates),[2],no AF detectable
same,degradation by the lyase,[4],not able to degrade
OC[C@H]1O[C@H](OC[C@H]2OC(O)[C@H](O)[C@@H](O)[C@@H]2O)[C@H](O)[C@@H](O)[C@@H]1O (some centres unmarked) [isomaltose],degradation (AF detectable on TLC plates),[1],no AF detectable
same,degradation (AF detectable on TLC plates),[2],no AF detectable
same,degradation by the lyase,[4],not able to degrade
OC[C@H]1O[C@H](O[C@H]2[C@H](O)[C@@H](CO)OC(O)[C@@H]2O)[C@H](O)[C@@H](O)[C@@H]1O (some centres unmarked) [nigerose],degradation (AF detectable on TLC plates),[1],no AF detectable
same,degradation (AF detectable on TLC plates),[2],no AF detectable
same,degradation by the lyase,[4],slow rate
OC[C@H]1O[C@H](O[C@@H]2[C@@H](O)[C@@H](O[C@@H]3[C@@H](O)[C@@H](O[C@H]4[C@H](O)[C@@H](CO)OC(O)[C@@H]4O)O[C@H](CO)[C@H]3O)O[C@H](CO)[C@H]2O)[C@H](O)[C@@H](O)[C@@H]1O (some centres unmarked) [nigerotetraose],degradation (AF detectable on TLC plates),[1],no AF detectable
same,degradation (AF detectable on TLC plates),[2],no AF detectable
same,degradation by the lyase,[4],not able to degrade
O=[N+]([O-])c1ccc(O[C@H]2O[C@H](CO)[C@@H](O[C@H]3O[C@H](CO)[C@@H](O[C@H]4O[C@H](CO)[C@@H](O[C@H]5O[C@H](CO)[C@@H](O[C@H]6O[C@H](CO)[C@@H](O[C@H]7O[C@H](CO)[C@@H](O[C@H]8O[C@H](CO)[C@@H](O)[C@H](O)[C@H]8O)[C@H](O)[C@H]7O)[C@H](O)[C@H]6O)[C@H](O)[C@H]5O)[C@H](O)[C@H]4O)[C@H](O)[C@H]3O)[C@H](O)[C@H]2O)cc1 [p-nitrophenyl α-D-maltoheptaose],degradation by the fungal lyase,[1],degraded
OC[C@H]1O[C@H](OC[C@H]2O[C@H](O[C@H]3[C@H](O)[C@@H](O)C(O)O[C@@H]3CO)[C@H](O)[C@@H](O)[C@@H]2O)[C@H](O)[C@@H](O)[C@@H]1O (some centres unmarked) [panose],degradation (AF detectable on TLC plates),[1],no AF detectable
same,degradation (AF detectable on TLC plates),[2],no AF detectable
same,degradation by the lyase,[4],slow rate
Glycogen,degradation by the fungal lyase,[1],also degraded
same,relative degrading rate (maltotetraose = 100%),[1]; substrate 10 mg/ml,128.5%
same,Activity (%) (maltotetraose = 100%),[2],183.3%
same,substrate concentration at which half of the maximal velocity rate was reached,[4],3.37 mg/mL
same,AF released,[4],592 nmol
same,ratio of relative reaction rates between Glycogen and Amylopectin (%),[6]; 25 C.,72.4%
same,relative reaction rates,[6]; 25 C.,0.592^a
same,ratio of relative reaction rates between Glycogen and Amylopectin (%),[6]; 30 C.,79.8%
same,relative reaction rates,[6]; 30 C.,0.904^a
same,ratio of relative reaction rates between Glycogen and Amylopectin (%),[6]; 45 C.,158.9%
same,relative reaction rates,[6]; 45 C.,1.861^a
Soluble starch,relative degrading rate (maltotetraose = 100%),[1]; substrate 10 mg/ml,92.9%
same,Activity (%) (maltotetraose = 100%),[2],100.5%
amylose,degradation by the fungal lyase,[1],also degraded
pullulan,degradation (AF detectable on TLC plates),[1],no AF detectable
same,degradation (AF detectable on TLC plates),[2],no AF detectable
same,degradation by the lyase,[4],not able to degrade
